Our source for the Ki values is US20060234997A1, “Tetrahydro-pyridoazepin-8-ones and related compounds for the treatment of schizophrenia” (WARNER-LAMBERT COMPANY LLC, priority 2005, published 2006).

Usually Ki stands for the equilibrium dissociation constant of an inhibitor or competing ligand from its target. High values mean lower affinity, low ones higher affinity.

T1 sequence (P14416 whole entry): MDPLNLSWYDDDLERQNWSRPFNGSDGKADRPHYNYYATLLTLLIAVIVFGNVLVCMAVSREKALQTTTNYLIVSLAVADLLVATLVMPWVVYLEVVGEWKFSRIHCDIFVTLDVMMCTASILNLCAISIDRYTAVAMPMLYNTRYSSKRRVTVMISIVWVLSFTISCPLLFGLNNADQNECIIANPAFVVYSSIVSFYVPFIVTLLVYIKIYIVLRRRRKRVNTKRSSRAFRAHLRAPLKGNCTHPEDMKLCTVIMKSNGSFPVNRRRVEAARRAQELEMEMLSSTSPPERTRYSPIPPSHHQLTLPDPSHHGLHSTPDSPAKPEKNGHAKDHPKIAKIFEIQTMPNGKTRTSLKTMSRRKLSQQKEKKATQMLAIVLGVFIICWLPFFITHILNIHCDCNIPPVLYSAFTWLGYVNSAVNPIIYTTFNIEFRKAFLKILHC

The assay addresses T1, Dopamine D2 receptor (hD2L) (Homo sapiens, UniProt P14416).
T1 construct: expressed in transfected cells; host or cells: CHO cells (CHO-hD2L)
In words: Dopamine D2 Receptor Binding Assay ([3H]spiperone, CHO-hD2L membranes). The conditions noted are these: [3H]spiperone 0.4 nM, membrane preparation from CHO-hD2L cells. From the text: The ability of the novel compounds of this invention to bind to the dopamine D2 receptor can be determined using conventional radioligand receptor binding assays. All receptors can be heterologously expressed in cell lines and binding assays can be conducted in membrane preparations from the cell lines using procedures outlined below. IC50 concentrations can be determined by nonlinear regression of concentration-dependent reduction in specific binding. The Cheng-Prussoff equation can be used to convert the IC50 to Ki concentrations.
[^3H]Spiperone binding to a membrane preparation from CHO-hD2L cells was carried out in 250 μl of 50 mM Tris-HCl buffer containing 100 mM NaCl, 1 mM MgCl2 and 1% DMSO at pH 7.4. Duplicate samples containing (in order of addition) the test compounds, 0.4 nM [^3H]spiperone and approximately 12 μg protein were incubated for 120 minutes at room temperature. Bound radioligand was separated by rapid filtration under reduced pressure through Whatman GF/B glass fiber filters previously treated with 0.3% polyethyleneimine. Radioactivity retained on the filter is determined by liquid scintillation spectrophotometry.
As to `O=C1CCCc2ccc(OCCCCN3CCN(c4cccc5ccccc45)CC3)nc2N1` [Example 2, 2-[4-(4-Naphthalen-1-yl-piperazin-1-yl)-butoxy]-5,6,7,9-tetrahydro-pyrido[2,3-b]azepin-8-one], the Ki came out at 3.87 nM. Turning to `O=C1CCCc2ccc(OCCCCN3CCN(c4cccc(Cl)c4Cl)CC3)nc2N1` [Example 3, 2-{4-[4-(2,3-dichloro-phenyl)-piperaxin-1-yl]-butoxy}-5,6,7,9-tetrahydro-pyrido[2,3-b]azepin-8-one], the affinity, expressed as Ki, was 5.48 nM. In the case of `O=C1CCCc2ccc(OCCCCN3CCN(c4cccc5c4OCCC5)CC3)nc2N1` [Example 4, 2-[4-(4-Chroman-8-yl-piperazin-1-yl)-butoxy]-5,6,7,9-tetrahydro-pyrido[2,3-b]azepin-8-one] it was 2 nM. In the case of `O=C1CCCc2ccc(OCCCCN3CCN(c4cccc5c4CCCC5)CC3)nc2N1` [Example 5, 2-{4-[4-(5,6,7,8-Tetrahydro-naphthalen-1-yl)-piperazin-1-yl]-butoxy}-5,6,7,9-tetrahydro-pyrido[2,3-b]azepin-8-one] it was 2.45 nM; in that of `O=C1CCCc2ccc(OCCCCN3CCN(c4cccc5c4CCC5)CC3)nc2N1` [Example 6, 2-[4-(4-Indan-4-yl-piperazin-1-yl)-butoxy]-5,6,7,9-tetrahydro-pyrido[2,3-b]azepin-8-one], 1 nM. `O=C1CCCc2ccc(OCCCCN3CCN(c4cccc5c4OCC5)CC3)nc2N1` [Example 7, 2-{4-[4-(2,3-Dihydro-benzofuran-7-yl)-piperazin-1-yl]-butoxy}-5,6,7,9-tetrahydro-pyrido[2,3-b]azepin-8-one] had a Ki of 3.46 nM. Against the preceding molecule, the Ki is about 3.5-fold higher. Take `O=C1CCCc2ccc(OCCCCN3CCN(c4cccc5ccc(F)cc45)CC3)nc2N1` [Example 8, 2-{4-[4-(7-Fluoro-naphthalen-1-yl)-piperazin-1-yl]-butoxy}-5,6,7,9-tetrahydro-pyrido[2,3-b]azepin-8-one]: affinity was put at a Ki of 1 nM. This Ki is about 3.5-fold lower than that of the molecule before. For `O=C1CCCc2ccc(OCCCCN3CCN(c4cccc5c4OCCCO5)CC3)nc2N1` [Example 9, 2-{4-[4-(3,4-Dihydro-2H-benzo[b][1,4]dioxepin-6-yl)-piperazin-1-yl]-butoxy}-5,6,7,9-tetrahydro-pyrido[2,3-b]azepin-8-one] the value was 2 nM; for `N#Cc1ccc2cccc(N3CCN(CCCCOc4ccc5c(n4)NC(=O)CCC5)CC3)c2c1` [Example 10, 8-{4-[4-(8-Oxo-6,7,8,9-tetrahydro-5H-pyrido[2,3-b]azepin-2-yloxy)-butyl]-piperazin-1-yl}-naphthalene-2-carbonitrile], 2.79 nM; for `CN1C(=O)CCc2cccc(N3CCN(CCCCOc4ccc5c(n4)NC(=O)CCC5)CC3)c21` [Example 11, 2-{4-[4-(1-Methyl-2-oxo-1,2,3,4-tetrahydro-quinolin-8-yl)-piperazin-1-yl]-butoxy}-5,6,7,9-tetrahydro-pyrido[2,3-b]azepin-8-one], 18.9 nM. `O=C1NCCc2ccc(OCCCCN3CCN(c4cccc(Cl)c4Cl)CC3)nc2N1` [Example 14, 2-{4-[4-(2,3-Dichloro-phenyl)-piperazin-1-yl]-butoxy}-5,6,7,9-tetrahydro-1,7,9-triaza-benzocyclohepten-8-one]: the affinity corresponds to a Ki of 1 nM. In the case of `O=C1NCCc2ccc(OCCCCN3CCN(c4cccc5ccccc45)CC3)nc2N1` [Example 15, 2-[4-(4-Naphthalen-1-yl-piperazin-1-yl)-butoxy]-5,6,7,9-tetrahydro-1,7,9-triaza-benzocyclohepten-8-one] it was 1 nM. Turning to `O=C1NCCc2ccc(OCCCCN3CCN(c4cccc5c4CCCC5)CC3)nc2N1` [Example 16, 2-{4-[4-(5,6,7,8-Tetrahydro-naphthalen-1-yl)-piperazin-1-yl]-butoxy}-5,6,7,9-tetrahydro-1,7,9-triaza-benzocyclohepten-8-one], the Ki is 1.41 nM. Take `O=C1NCCc2ccc(OCCCCN3CCN(c4cccc5c4OCCC5)CC3)nc2N1` [Example 17, 2-[4-(4-Chroman-8-yl-piperazin-1-yl)-butoxy]-5,6,7,9-tetrahydro-1,7,9-triaza-benzocyclohepten-8-one]: the inhibitory constant (Ki) turned out to be 1 nM. The Ki values of the last two molecules are within 1.5-fold of each other. The molecule `COc1ccc2cccc(N3CCN(CCCCOc4ccc5c(n4)NC(=O)NCC5)CC3)c2c1` [Example 21, 2-{4-[4-(7-Methoxy-naphthalen-1-yl)-piperazin-1-yl]-butoxy}-5,6,7,9-tetrahydro-1,7,9-triaza-benzocyclohepten-8-one] gave a Ki of 0.4 nM. This Ki is about 2.5-fold lower than that of the molecule before. `N#Cc1ccc2cccc(N3CCN(CCCCOc4ccc5c(n4)NC(=O)NCC5)CC3)c2c1` [Example 22, 8-{4-[4-(8-Oxo-6,7,8,9-tetrahydro-5H-1,7,9-triaza-benzocyclohepten-2-yloxy)-butyl]-piperazin-1-yl}-naphthalene-2-carbonitrile]: the Ki came out at 0.4 nM. In the case of `CN1C(=O)CCc2cccc(N3CCN(CCCCOc4ccc5c(n4)NC(=O)NCC5)CC3)c21` [Example 23, 2-{4-[4-(1-Methyl-2-oxo-1,2,3,4-tetrahydro-quinolin-8-yl)-piperazin-1-yl]-butoxy}-5,6,7,9-tetrahydro-1,7,9-triaza-benzocyclohepten-8-one] it was 3 nM; in that of `Cc1c(F)ccc(N2CCN(CCCCOc3ccc4c(c3)NC(=O)NCC4)CC2)c1Cl` [Example 30, 8-{4-[4-(2-Chloro-4-fluoro-3-methyl-phenyl)-piperazin-1-yl]-butoxy}-1,3,4,5-tetrahydro-benzo[d][1,3]diazepin-2-one], 2 nM.

Molecule `Cc1cc(N2CCN(CCCCOc3ccc4c(c3)NC(=O)NCC4)CC2)c(Cl)cc1F` [Example 31, 8-{4-[4-(2-Chloro-4-fluoro-5-methyl-phenyl)-piperazin-1-yl]-butoxy}-1,3,4,5-tetrahydro-benzo[d][1,3]diazepin-2-one] showed a Ki of 6 nM. This Ki is about 3-fold higher than that of the molecule before.

`O=C1NCCc2ccc(OCCCCN3CCN(c4cccc5ccccc45)CC3)cc2N1` [Example 32, 8-[4-(4-Naphthalen-1-yl-piperazin-1-yl)-butoxy]-1,3,4,5-tetrahydro-benzo[d][1,3]diazepin-2-one] returned a Ki of 3.45 nM. As for `CCc1cccc(N2CCN(CCCCOc3ccc4c(c3)NC(=O)NCC4)CC2)n1` [Example 33], the Ki came out at 2.83 nM. In the case of `CC(C)c1cccc(N2CCN(CCCCOc3ccc4c(c3)NC(=O)NCC4)CC2)n1` [Example 34, 8-{4-[4-(6-Isopropyl-pyridin-2-yl)-piperazin-1-yl]-butoxy}-1,3,4,5-tetrahydro-benzo[d][1,3]diazepin-2-one] it was 2.68 nM; in that of `O=C1NCCc2ccc(OCCCCN3CCN(c4ccc(F)cc4Cl)CC3)cc2N1` [Example 35, 8-{4-[4-(2-Chloro-4-fluoro-phenyl)-piperazin-1-yl]-butoxy}-1,3,4,5-tetrahydro-benzo[d][1,3]diazepin-2-one], 3 nM. In the case of `O=C1NCCc2ccc(OCCCCN3CCN(c4ccc(F)c(Cl)c4Cl)CC3)cc2N1` [Example 36, 8-{4-[4-(2,3-Dichloro-4-fluoro-phenyl)-piperazin-1-yl]-butoxy}-1,3,4,5-tetrahydro-benzo[d][1,3]diazepin-2-one] it was 3 nM; in that of `O=C1NCCc2ccc(OCCCCN3CCN(c4cccc5ccc(F)cc45)CC3)cc2N1` [Example 38, 8-{4-[4-(7-Fluoro-naphthalen-1-yl)-piperazin-1-yl]-butoxy}-1,3,4,5-tetrahydro-benzo[d][1,3]diazepin-2-one], 2.22 nM; in that of `O=C1NCCc2ccc(OCCCCN3CCN(c4cccc5nsnc45)CC3)cc2N1` [Example 39, 8-{4-[4-(2,1,3-benzothiadiazol-4-yl)piperazin-1-yl]butoxy}-1,3,4,5-tetrahydro-2H-1,3-benzodiazepin-2-one], 2.6 nM.

With `O=C1NCCc2ccc(OCCCCN3CCN(c4cccc5c(F)cccc45)CC3)cc2N1` [Example 40, 8-{4-[4-(5-Fluoro-naphthalen-1-yl)-piperazin-1-yl]-butoxy}-1,3,4,5-tetrahydro-benzo[d][1,3]diazepin-2-one], the Ki stood at 11.4 nM. For `COc1ccc2cccc(N3CCN(CCCOc4ccc5c(c4)NC(=O)NCC5)CC3)c2n1` [Example 41, 8-{3-[4-(2-Methoxy-quinolin-8-yl)-piperazin-1-yl]-propoxy}-1,3,4,5-tetrahydro-benzo[d][1,3]diazepin-2-one] the value was 1.04 nM; for `O=C1NCCc2ccc(OCCCCN3CCN(c4cccc5cccc(F)c45)CC3)cc2N1` [Example 42, 8-{4-[4-(8-Fluoro-naphthalen-1-yl)-piperazin-1-yl]-butoxy}-1,3,4,5-tetrahydro-benzo[d][1,3]diazepin-2-one], 2.32 nM.

As to `O=C1NCCc2ccc(OCCCN3CCN(c4cccc5ccccc45)CC3)cc2N1` [Example 43, 8-[3-(4-Naphthalen-1-yl-piperazin-1-yl)-propoxy]-1,3,4,5-tetrahydro-benzo[d][1,3]diazepin-2-one], the affinity corresponds to a Ki of 3.24 nM. For `O=C1NCCc2ccc(OCCCN3CCN(c4cccc5ccc(F)cc45)CC3)cc2N1` [Example 44, 8-{3-[4-(7-Fluoro-naphthalen-1-yl)-piperazin-1-yl]-propoxy}-1,3,4,5-tetrahydro-benzo[d][1,3]diazepin-2-one] the value was 5.44 nM; for `O=C1NCCc2ccc(OCCCCN3CCN(c4cccc5c4COCC5)CC3)cc2N1` [Example 45, 8-[4-(4-Isochroman-8-yl-piperazin-1-yl)-butoxy]-1,3,4,5-tetrahydro-benzo[d][1,3]diazepin-2-one], 6.14 nM.
